Columns and labels:
[1] = In vitro stability test in human serum; assay type: in vitro ADME; settings: 1.0 ml human serum, 37° C., 2 hours, ITLC-sg / radio TLC
Procedure: For in vitro stability test, 0.74 MBq/100 μl of [^18F] DMFB was dissolved in 1.0 ml human serum and then evaluated at 37° C. for 2 hours. The structural stability was measured by ITLC-sg. ITLC-sg (1×10 cm) was developed using MC:MeOH=10:1. The results were confirmed by radio TLC.

Melanin binding assay = test: Melanin binding assay
Procedure: 0.74 MBq of [^18F] DMFB was reacted with 2 mg of melanin and 10 ml of distilled water for 10, 30, 60, and 120 minutes at 37° C. with stirring. Then, centrifugation was performed at 16,800 rpm for 10 minutes, and […] of the supernatant was measured with a gamma counter. Percentages (%) of [^18F]DMFB bound to melanin were calculated based on the mixture of [^18F]DMFB and distilled water alone without melanin.

B16F10 melanoma cells = test: Melanoma cell uptake ratio experiment; assay type: cell-based, mouse
Procedure: B16F10 cell line, a mouse malignant melanoma cell line, was cultured in 5% CO2 in DMEM medium. Twenty-four hours prior to the experiment, cells were plated at 5×10^5 cells/well in 12-well plates and treated with 0.275 mM L-tyrosine-supplemented medium and non-supplemented medium, respectively. Then the cells were treated with 0.74 MBq of [18F]DMFB and incubated at 37° C. for 10, 30, and 60 min, respectively. After washing with PBS twice, the cells were treated with trypsin and the degree of [^18F]DMFB in the cell culture medium and cells in each time group was measured with a gamma counter, respectively. Three experiments were performed for each time group, and the results were expressed as percentage of the amount absorbed by cells versus the amount treated into the plate.

B16F10 cell line tumor [2] = test: Body distribution in small animal model of tumor transplantation; assay type: in vivo, nude mice
Procedure: (§1) In order to confirm the in vivo distribution of [^18F]DMFB, experiments were performed on nude mice whose tumor was grown to 100 to 150 mm^3 after about 10 days of injection of the B16F10 cell line into the right shoulder region. [^18F]DMFB was injected into the tail vein of the tumor-bearing mice at a dose of 7.4 MBq and sacrificed at 10, 30, 60, and 120 minutes, respectively to excise tumor tissue, blood and organs, and distribution of the radioactive compound was confirmed. The excised organs were measured by the gamma counter in each of the organs including blood, heart, lung, liver, spleen, stomach, intestine, kidney, pancreas, normal muscle, bone, brain, skin and eyes. The results were corrected by organ weight and expressed as a percentage of injections per gram of tissue (% ID/g).
as §1, with “In addition, in” for “In”, “[^18F]DMPY2 prepared in the example 3-2,” for “[^18F]DMFB,”, “tumors were” for “tumor was”, “[^18F]DMPY2” for “[^18F]DMFB”, “30,” for “30, 60,”, “60” for “120”

B16F10 cell line tumor [3] = test: Micro PET imaging using xenograft tumor mouse model; assay type: in vivo, nude mouse; settings: for signals in other organs (micro PET): 1 hour / 60 min after injection
Procedure: To confirm the in vivo dynamics of [^18F]DMFB, B16F10 cell line was injected into the right shoulder region, and about 10 days later, micro PET was performed using a nude mouse bearing tumor ranging in size of 100-150 mm^3. The nude mice were anesthetized with Isoflurane inhalation and then injected with 7.4 MBq of [^18F]DMFB into the tail vein. Static micro PET images were obtained at 10, 30, and 60 minutes after injection of the radioactive compound. Tumor uptake was determined and the images were reconstructed using 3D-ordered subset expectation maximization (3D-OSEM).
In addition, the in vivo dynamics of [^18F] DMPY2 was also analyzed by the same method as described above except that micro PET images were taken at 30 and 60 minutes after injection.

[4] = test system: B16F10 metastatic foci (lung, liver, lymph node); test: In vivo distribution and PET imaging in lung/liver metastatic model mice; parameters: species or system C57BL/6 mice; settings: 60 minutes from administering, lung metastasis model animal
Procedure: In order to examine the in vivo distribution and dynamics of [^18F]DMFB in lung/liver metastatic animal model, the present inventors divided C57BL/6 mice into two groups, one were injected with 1×10^5 cells of B16F10 cell line into the tail vein and the other were not injected with the tumor cells. After 14 days from the tumor cell inoculation, 7.4 MBq of [^18F]DMFB was injected into lung metastatic model mice and normal mice via tail vein, respectively and visualized at 60 min. Likewise, liver metastatic mice prepared by injecting 1×10^5 cells of B16F10 cell line into the tale vein were injected with 7.4 MBq of [^18F]DMFB into the tail vein. After 60 minutes of the administration, micro PET image was obtained. This liver metastatic model mice were produced among mice survived after a certain time after the induction of lung metastasis. Mice survived after the induction lung metastasis have metastasized to the lymph nodes and other organs after time elapse. […] After obtaining the images, the metastatic model mice and normal mice were sacrificed and lung and liver were excised and uptake ratio of the excised lung and liver were measured by a gamma counter. The results were corrected by organ weight and expressed as a percentage of injections per gram of tissue (% ID/g). […]

melanoma = settings: cited from earlier work; for detection rate for melanoma: melanoma patients
B16F10 xenograft tumor = test: Comparison of [^18F]DMPY2 and [^18F]FDG, micro PET in melanoma xenograft model mice; assay type: in vivo; settings: 1 hour after injection, 7.4 MBq
Procedure: (§2) The present inventors compared the imaging capabilities for melanoma and lung metastasis of the melanoma of [^18F]DMPY2 according to one embodiment of the present invention with the [^18F]FDG which has been used as a PET contrast agent for diagnosing cancer previously.
Particularly, melanoma xenograft model mice were prepared in the same manner as in Experimental Example 5, and then 7.4 MBq of [^18F]DMPY2 and [^18F]FDG were injected respectively, and systemic micro PET images were obtained at 1 hour after the injection.

[5] = test system: lung metastasis of melanoma; test: Comparison of [^18F]DMPY2 and [^18F]FDG, micro PET in lung metastasis model mice; assay type: in vivo; settings: 1 hour after injection, 7.4 MBq
Procedure: as §2
In addition, after lung metastasis model mice were prepared in the same manner as in Experimental Example 6, 7.4 MBq of [^18F]DMPY2 and [^18F]FDG were injected, respectively, and systemic micro PET images were obtained at 1 hour after the injection.

[6] = with time after injection (10, 30, 60 minutes)

SMILES: CN(C)CCNC(=O)c1ccc([18F])cc1 [[^18F]DMFB, N-(2-(dimethylamino)ethyl)-4-[^18F]fluorobenzamide]
- structural stability in human serum [1]: very stable even after 2 hours
- binding rate to melanin (Melanin binding assay; 2 mg melanin, 37° C., 10 to 120 minutes): ≥ 85%
- change of melanin binding rate over time (Melanin binding assay; after 120 minutes): did not significantly decrease
- uptake in B16F10 melanoma cells (B16F10 melanoma cells; L-tyrosine not treated): hardly absorbed
- uptake in B16F10 melanoma cells (B16F10 melanoma cells; medium supplemented with tyrosine (0.275 mM L-tyrosine), 10 to 60 minutes): significantly increased
- radioactivity in internal organs (blood, heart, liver, lung, kidney) (B16F10 cell line tumor [2]; 10 minutes after injection, 7.4 MBq tail vein): strong radioactivity was detected
- absorption ratio in stomach, liver, and kidney (B16F10 cell line tumor [2]; 1 hour after injection): relatively low
- absorption ratio in tumor tissues (B16F10 cell line tumor [2]; 1 hour after injection): highest
- radioactivity in the tumor tissue (B16F10 cell line tumor [2]; elapsed time of 2 hours): maintained
- radioactivity in the visceral organs (B16F10 cell line tumor [2]; elapsed time of 2 hours): hardly detected
- signals in other organs (micro PET) (B16F10 cell line tumor [3]): maintaining signal in other organs
- radiation in the tumor tissue (micro PET) (B16F10 cell line tumor [3]; [6]): maintained
- radioactivity in the liver (micro PET) (B16F10 cell line tumor [3]; [6]): decreased with time
- detection of lung metastatic cancer (micro PET) [4]: possible to detect a lung metastatic cancer

SMILES: Cc1cn([C@H]2C[C@H]([18F])[C@@H](CO)O2)c(=O)[nH]c1=O [^18F-FLT, 3′-^18F-fluoro-3′-deoxy-L-thymidine]
- detection rate for melanoma (melanoma): extremely low

SMILES: N[C@@H](Cc1cc(O)c(O)cc1[18F])C(=O)O [^18F-DOPA, 6-^18F-Fluoro-L-dihydroxyphenylalanine]
- detection rate for melanoma (melanoma): extremely low

SMILES: CN(C)CCNC(=O)c1ccc([18F])cn1 [[^18F]DMPY2]
- absorption ratio in tumor tissues (B16F10 cell line tumor [2]; 1 hour after injection): accumulated most in tumor tissue
- signal in other organs such as kidney (B16F10 cell line tumor [2]; over time to 1 hour after injection): rapidly decreased
- signals in other organs (micro PET) (B16F10 cell line tumor [3]): very weak
- signal in melanoma tumor tissue (micro PET) (B16F10 cell line tumor [3]; 1 hour after injection): clearly observed
- signal in tumor tissue (micro PET) (B16F10 xenograft tumor): clear signal only in tumor tissue
- signal to noise ratio (micro PET) (B16F10 xenograft tumor): very high
- signal in the metastatic lung (micro PET) [5]: very strong signal
- signals / noise in other organs (micro PET) [5]: little or no noise in other organs except bladder

SMILES: [11CH3]SCC[C@H](N)C(=O)O [^11C-methionine, L-[methyl-^11C]methionien]
- detection rate for melanoma (melanoma): extremely low

SMILES: O=C[C@H]([18F])[C@@H](O)[C@H](O)[C@H](O)CO [[^18F]FDG, F-18-fluoro-deoxyglucose, reference compound]
- background noise (micro PET) (B16F10 xenograft tumor): background noise was widespread throughout the whole body
- signal in tumor tissue (micro PET) (B16F10 xenograft tumor): showed a signal in the tumor tissue
- signals / noise in other organs (micro PET) [5]: stronger than the lungs
- suitability for diagnosing lung metastasis of melanoma [5]: unsuitable
- identification of metastatic foci with less than 1 cm in diameter (melanoma; lung, liver, and brain): failed to identify

Reference: patent US11504439B2, “Radioactive compound for diagnosis of malignant melanoma and use thereof” (INDUSTRY FOUNDATION OF CHONNAM NATIONAL UNIVERSITY, priority 2017, dated 2022)
